These results are taken from patent publication US20230357292A1, “MULTI-COORDINATE GOLD-PHOSPHINE COMPOUNDS AND METHOD OF USE” (University of Kentucky Research Foundation, priority 2020, published 2023).

Data set [1] relates to 4T1 tumor.
Procedure: Female, 5 week-old BALB/c mice were purchased from Charles River Laboratories (Wilmington, MA). All mice were quarantined for 1 week prior to use and kept in micro-isolator cages (four mice per cage) in a temperature- and humidity-controlled environment as per the Division of Laboratory Animal Research (DLAR) of University of Kentucky. All mice were maintained in a pathogen-free environment under the care of DLAR of University of Kentucky. The study was performed in compliance with the NIH guidelines (NIH Publication No. 85-23 Rev. 1985) for the care and use of laboratory animals and all experimental procedures were monitored and approved by the Institutional Animal Care and Use Committee (IACUC) of University of Kentucky (USA).
The control group was injected with a PBS solution containing 1% DMSO and 1% Kolliphor.
A separate group of mice was administered equal volumes of vehicle control at the same time points and via the analogous route.
The subject of data set [2] is 4T1 tumor. In words: In vivo comparative experiment of AuPhos-89 and cisplatin, 4T1, IP. More on the design: species or system BALB/c mice. Here is the method:
Mice were implanted with 2,000,000 4T1 cells subcutaneously on their flanks. […] The control group was injected with a PBS solution containing 1.5% DMSO and 12% Kolliphor. Injection and tumor-size/body-weight measurement was performed three days a week.
Mice organs (heart, lung, liver, kidney, spleen, and tumor) were fixed in freshly prepared paraformaldehyde (4% in PBS), the fixation time was 24 hours. And those processed for paraffin sectioning. The organs sections of 5 μm were stained with H&E staining and used for histological examination of the organs and tumor. A total of 5 sections per tissues (spanning the full depth of the organ) were examined and photographed using a Nikon Eclipse 55i microscope. […]

The next data set has as its system MDA-MB-231 cells. The following applies: 1 μM for 15 h, FACS. Here is the method: MDA-MB-231 cells were seeded at a density of 5×10^5 cells/well in a 6-well clear bottom plate with a final media volume of 2 mL. The cells were allowed to adhere overnight at 37° C. A stock of AuPhos-89 was prepared fresh in DMSO/DMEM (% v/v=20:80) and added to the desired well at a concentration of 1 μM with a final volume of 2.5 mL and incubated for 15 h at 37° C. A stock of H2O2 was prepared in PBS and the cells treated at a final concentration of 2 mM for 3 hours and used as positive control. When ready for analysis, medium was removed and the wells washed with 5 mL of PBS. The cells were trypsinized (1 mL), 5 mL of DMEM were added to each well, and total volume collected and centrifuged to pellet the cells. The cells were resuspended in 2 mL of fresh media, counted, and reconstituted to a concentration of 1×10^5 cells/mL. The cells were centrifuged again, and the pellet suspended in 500 μL of Annexin binding buffer. To each sample was added 5 μl of Annexin V-FITC and 5 μl PI and incubated in the dark at room temperature for 5 minutes. The samples were then subjected to FACS analysis.

Structures are written as SMILES. “Also recorded” adds a separate entry of the source. Read-outs that look alike come from different tables or passages of the source.

Consider `[Cl-].[Cl][Au-]1([c]2ccccc2-c2ccccn2)[P+](c2ccccc2)(c2ccccc2)c2ccccc2[P+]1(c1ccccc1)c1ccccc1` [AuPhos-89, (2-phenylpyridine)[1,2-Bis(diphenylphosphino)benzene]gold(III) Dichloride], for which, in the data set with 4T1 tumor [1] (10 mg kg−1 IV, 3 weekly injections, n=5, versus vehicle control), the tumor growth rate result is reported as “decreased significantly”. Also, the body weight result with 4T1 tumor [1] (end of the observation period) is “did not exhibit significant change”; with 4T1 tumor [2] (intraperitoneal administration) it was “kept constant”. Further, in the data set with 4T1 tumor [2] (4T1 tumor-bearing mice, treated versus control), the “liver metastasis (H&E sections)” value is listed as “can inhibit liver metastasis; also recorded: not visible; also recorded: no palpable metastatic lesions”. For the same compound, in the data set on 4T1 tumor [2] (AuPhos-89 10 mg kg−1 IP, cisplatin 3 mg kg−1 IP), the “tumor inhibition compared with the control group” value was “significant tumor inhibition”. For the same compound, the survival entry in the data set with 4T1 tumor [2] (mouse, in vivo, ip) is “increased rates of survival”. Further, the tumor volume result in the data set on 4T1 tumor [2] (six treatments, thrice a week, IP, AuPhos-89 10 mg kg−1, cisplatin 3 mg/kg, versus vehicle control) is recorded as “reduced tumor volume”. The “population of cells in early to late apoptosis” value in the data set with MDA-MB-231 cells is given as about 40%.
